# In ChEMBL document CHEMBL1122529, “Synthesis of 5-aryl-2H-tetrazoles, 5-aryl-2H-tetrazole-2-acetic acids, and [(4-phenyl-5-aryl-4H-1,2,4-triazol-3-yl)thio]acetic acids as possible superoxide scavengers and antiinflammatory agents” (1984):
# Columns and labels:
# Type in all cases: functional
# [1] = species on record: Rattus norvegicus; assay: In Vitro superoxide scavenging activity at a concentration of 1.0 x 10E4 M.
# [2] = test system: Rattus norvegicus; assay: Percentage inhibition of reverse passive Arthus reaction was reported at a concentration of 30 mg/kg.
# [3] = test system: Rattus norvegicus; assay: Percentage inhibition of Carrageenan-induced rat paw edema at a concentration of 32 mg/kg
# [4] = species on record: Rattus norvegicus; assay: In Vitro superoxide scavenging activity by the analysis of variance method at concentration of 0.1 x 10E4 M
# [5] = species on record: Rattus norvegicus; assay: In Vitro superoxide scavenging activity by the analysis of variance method at concentration of 0.5 x 10E4 M
# [6] = test system: Rattus norvegicus; assay: The mean index of reverse passive Arthus reaction was calculated 3 h-postinjection at a concentration of 30 mg/kg.
# [7] = species on record: Rattus norvegicus; assay: In Vitro superoxide scavenging activity by the analysis of variance method at concentration of 2.0 x 10E4 M
# [8] = test system: Rattus norvegicus; assay: Percentage inhibition of Carrageenan-induced rat paw edema at a concentration of 0.3 mg/kg
smiles,measurement,setting,value
O=C(O)CSc1nnc(-c2cc(O)c(O)c(O)c2)n1-c1ccccc1,inhibition,[1],65.7%
same,inhibition in vivo at 30 mg/kg,[2],-28.2%
same,inhibition in vivo at 32 mg/kg,[3],18%
same,inhibition,[4],16.7%
same,inhibition,[5],22.1%
same,Mean index,[6],52
COc1ccc(-c2nn[nH]n2)cc1,inhibition,[1],0%
O=C(O)Cn1nnc(-c2ccc(O)cc2)n1,inhibition,[1],0%
CCCCC1C(=O)N(c2ccccc2)N(c2ccccc2)C1=O [PHENYLBUTAZONE],inhibition in vivo at 32 mg/kg,[3],47%
Oc1ccc(-c2nn[nH]n2)cc1,inhibition,[7],0%
COc1cc(-c2nnn(CC(=O)O)n2)cc(OC)c1OC,inhibition,[1],0%
O=C(O)CSc1nnc(-c2ccccc2)n1-c1ccccc1,inhibition,[1],0%
Oc1ccc(-c2nn[nH]n2)cc1O,inhibition,[1],37.5%
same,inhibition,[4],6.9%
same,inhibition,[5],23%
COc1ccc(-c2nnn(CC(=O)O)n2)cc1OC,inhibition,[1],0%
O=C(O)CSc1nnc(-c2ccc(O)c(O)c2)n1-c1ccccc1,inhibition,[1],21.5%
same,inhibition,[4],8.3%
same,inhibition,[5],11.8%
COc1ccc(-c2nn[nH]n2)cc1OC,inhibition,[1],0%
COc1ccc(-c2nnc(SCC(=O)O)n2-c2ccccc2)cc1OC,inhibition,[1],0%
COc1ccc(-c2nnn(CC(=O)O)n2)cc1,inhibition,[1],0%
C[C@@H]1C[C@H]2[C@@H]3CCC4=CC(=O)C=C[C@]4(C)[C@@]3(F)[C@@H](O)C[C@]2(C)[C@@]1(O)C(=O)CO [DEXAMETHASONE],inhibition in vivo at 0.3 mg/kg,[8],69%
O=C(O)CSc1nnc(-c2ccc(O)cc2)n1-c1ccccc1,inhibition,[1],11.6%
COc1cc(-c2nnc(SCC(=O)O)n2-c2ccccc2)cc(OC)c1OC,inhibition,[1],0%
O=C(O)Cn1nnc(-c2ccccc2)n1,inhibition,[1],0%
COc1ccc(-c2nnc(SCC(=O)O)n2-c2ccccc2)cc1,inhibition,[1],0%
c1ccc(-c2nnn[nH]2)cc1,inhibition,[1],0%
O=C(O)Cn1nnc(-c2cc(O)c(O)c(O)c2)n1,inhibition,[1],78%
same,inhibition in vivo at 30 mg/kg,[2],-28.7%
same,inhibition in vivo at 32 mg/kg,[3],14%
same,inhibition,[4],15.3%
same,inhibition,[5],55.9%
same,Mean index,[6],52
COc1cc(-c2nn[nH]n2)cc(OC)c1OC,inhibition,[1],0%
O=C(O)Cn1nnc(-c2ccc(O)c(O)c2)n1,inhibition,[1],18.8%
same,inhibition,[4],0%
same,inhibition,[5],7.9%
Oc1cc(-c2nn[nH]n2)cc(O)c1O,inhibition,[1],66.9%
same,inhibition in vivo at 30 mg/kg,[2],-5%
same,inhibition in vivo at 32 mg/kg,[3],6%
same,inhibition,[4],16%
same,inhibition,[5],48.4%
same,Mean index,[6],42.6
